Source: patent US20110039873A1, “SUBSTITUTED PYRAZOLO[1,5-a] PYRIDINE COMPOUNDS HAVING MULTI-TARGET ACTIVITY” (priority 2009, published 2011)
Like-named read-outs stand apart in the source and are kept apart here.

Columns and labels:
[1] = system: Mouse BV-2 microglial cells; assay: BV-2 glial cell assay (TNF-α and MCP-1 by Luminex); format: cell-based; settings: for EC50: Mus musculus, BV-2, LPS and IFN-γ activated, 20 hours; for inhibiting glial cell activation (TNF-α and/or MCP-1): Table 3
Experimental: Mouse BV-2 microglial cells were seeded on 96-well plates at a concentration of 3×10^4 cells/well. Cells were activated with 100 ng/mL LPS and IFN-γ (100 ng/mL) in the presence or absence of test compounds (0-30 uM). Following incubation for 20 hours, cells were spun down and supernatant collected. The supernatant was analyzed via Luminex for the presence of TNF-α and MCP-1.

6-OHDA lesioned rats = assay: 6-OHDA (Parkinson's) model, apomorphine induced rotations; format: in vivo, rat; settings: 50 mg/kg PO once daily, after 7 days; control 444, baseline 315
Experimental: AV1173 was evaluated in a 6-OHDA lesioned rats, a standard rat model of Parkinson's disease. (See, e.g., Ungerstedt, U. “6-hydroxydopamine induced degeneration of monoamine neurons.” Eur. J. Pharm. 5: 107-110, 1968; Garvey P M, et al., “Injection of biologically relevant active substances into the brain.” Methods in Neurosciences. 21: 214-234, 1994).
Pre-lesioned rats were purchased from a vendor (Taconic) following stereotaxic injection into the brain of the neurotoxin 6-hydroxydopamine (6-OHDA), which leads to neuronal cell loss in those brain regions affected in PD (in particular the substantia nigra). Briefly, anesthetized rats were injected with […] of 6-OHDA using stereotaxic coordinates to locate the needle within the nigrostatial pathway. A 2 ug/uL solution of 6-OHDA was infused at a rate of 1 ul/min for four minutes. […] On […] post-injection, rats began a once-daily oral regimen of AV1173 (50 mg/kg PO). Rats were assessed for rotational behavior following 0.5 mg/kg apomorphine challenge, one week from the initiation of dosing (Day 17 post-6-OHDA injection).

[2] = Oral pharmacokinetic evaluation; format: in vivo, rat; settings: Sprague-Dawley rats; for half-life / AUC(0-t) / Cmax: male, rat, plasma; for half-life: Sprague-Dawley, po, 15 mg/kg; for AUC(0-t): read-out: Oral PK AUClast; for Cmax: read-out: Oral PK Cmax
Experimental: Three male Sprague-Dawley rats were dosed orally via gavage with 15 mg/kg of test compound. Serial blood samples were collected from the jugular vein at 5, 15, and 30 min, 1, 3, and 6 hours post dosing. Samples were processed for plasma via centrifugation and plasma samples were stored frozen prior to analysis via a sensitive and specific HPLC/MS/MS method. PK parameters were calculated using WinNonLin (Pharsight).

[3] = molecular target: T1, recombinant human phosphodiesterase 10A1 enzyme (Homo sapiens, UniProt Q9Y233); assay: PDE10 inhibition assay (PDELight); format: biochemical; settings: for IC50: 1 uM cAMP, read-out: PDE 10 Inhibition (IC50 in μM); for PDE-10 inhibition (in words): Table 2
T1 construct: purchased BPS Biosciences; host or cells: Baculovirus infected Sf9 cells
T1 sequence (Q9Y233 1-779 isoform Q9Y233-1): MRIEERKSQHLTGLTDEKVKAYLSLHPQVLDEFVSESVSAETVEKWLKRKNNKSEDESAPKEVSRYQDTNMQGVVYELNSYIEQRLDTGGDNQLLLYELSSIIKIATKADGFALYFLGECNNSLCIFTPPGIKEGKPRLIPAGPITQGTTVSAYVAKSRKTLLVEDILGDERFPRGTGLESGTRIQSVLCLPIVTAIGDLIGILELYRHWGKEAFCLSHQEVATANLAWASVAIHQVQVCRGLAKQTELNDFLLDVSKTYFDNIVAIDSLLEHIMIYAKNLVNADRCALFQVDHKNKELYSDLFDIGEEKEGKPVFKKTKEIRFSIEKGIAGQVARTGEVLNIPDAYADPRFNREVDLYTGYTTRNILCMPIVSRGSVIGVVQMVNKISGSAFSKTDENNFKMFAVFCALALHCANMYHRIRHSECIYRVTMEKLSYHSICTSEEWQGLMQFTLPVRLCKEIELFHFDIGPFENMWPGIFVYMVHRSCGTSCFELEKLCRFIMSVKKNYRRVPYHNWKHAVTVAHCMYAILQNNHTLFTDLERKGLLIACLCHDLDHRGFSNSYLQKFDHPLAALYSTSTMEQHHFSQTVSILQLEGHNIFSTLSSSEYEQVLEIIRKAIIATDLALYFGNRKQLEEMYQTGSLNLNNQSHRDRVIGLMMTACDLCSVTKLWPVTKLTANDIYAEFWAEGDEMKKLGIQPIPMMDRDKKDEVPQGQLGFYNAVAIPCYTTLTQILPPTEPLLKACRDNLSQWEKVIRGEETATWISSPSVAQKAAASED

[4] = system: phosphorylated c-Jun (serine-73); assay: Phosphorylated c-JUN (A-beta), SH-SY5Y; format: cell-based; settings: Homo sapiens
Experimental: In 96-well plates either human SH-SY5Y neuroblastoma cells at 2.5×10^4 cells/well or E18 rat neuronal cells at 1.5×10^4 cells/well were seeded. […] Supernatant was discarded and cells were fixed with 4% paraformaldehyde (100 ul/well) for 20 minutes. FACE cell based ELISA assay (Active Motif) was performed specific for quantifying phosphorlyated c-Jun (serine-73).

Male Wistar rats = assay: Morris Maze test; format: in vivo, rat
Text: The potential cognitive enhancing properties of the exemplary compound, AV1137, were examined in the Morris Maze test in the rat.
Male Wistar rats were given 4 training sessions over 4 consecutive days. The training session consisted of 4 consecutive trials in the Morris Maze, each separated by 60 seconds. For each trial, the animal was placed in the maze at one of two starting points equidistant from the escape platform and allowed to find the escape platform. The animal was left on the escape platform for 60 seconds before starting a new trial. […] During the 4 trials the animals started the maze twice from each starting point in a randomly determined order per animal.
The trials were video-recorded and the behaviour of animals was analysed using a video-tracking system (Panlab: SMART). The measures taken were the escape latency, the path length and the swim speed at each trial. Scopolamine (0.5 mg/kg i.p.), administered 30 minutes before each session, induces amnesia as indicated by the failure of scopolamine-treated rats to reduce their escape latencies from trial to trial. 12 rats were studied per group. […]
AV1137 was evaluated at 2 and 5 mg/kg, administered twice daily. […]
AV1137 was also administered at the end of each acquisition day (i.e. 6-8 hours after the first administration). […] Data were analyzed by comparing treated groups with appropriate control using unpaired Student's t tests.

[5] = read-out: MCP-1 BV-2 (EC50 in μM)
[6] = read-out: TNF-a BV-2 (EC50 in μM)
[7] = 15 mg/kg oral gavage, read-out: Oral PK T½ (converted)
[8] = Amyloid Beta peptide 30 uM, 3 hours, read-out: p-cJun Abeta SH-SY5Y (EC50 in μM)
[9] = read-out: p-cJun SH-SY5Y (EC50 in μM), no Abeta

Row | EC50 [1, 5] | EC50 [1, 6] | half life following oral dosing (in words) ([2]; oral) | half-life [2, 7] | half-life ([2]; oral, read-out: half life following oral dosing) | AUC(0-t) ([2]; 15 mg/kg oral gavage) | Cmax ([2]; 15 mg/kg oral gavage) | IC50 [3] | PDE-10 inhibition (in words) [3] | EC50 [4, 8] | EC50 [4, 9] | Structure (SMILES) | inhibiting glial cell activation (TNF-α and/or MCP-1) [1] | average number of apomorphine induced rotations in 30 minutes (6-OHDA lesioned rats) | escape latencies (Male Wistar rats; normal rats (no scopolamine), 5 mg/kg i.p., relative to saline controls, FIG. 5) | escape latency and distance swum (Male Wistar rats; scopolamine-induced deficit, 2 and 5 mg/kg i.p. twice daily, relative to scopolamine treated controls, FIG. 4)
1 | 0.7 µM | 1.4 µM | particularly prolonged half lives | 564 min | > 180 min | 462 ng·h/mL | 122 ng/mL | 7.4 µM | particularly effective |  |  | CC(C)Nc1nccc(-c2c(C3CC3)nn3ccccc23)n1 [AV1173, 4-(2-cyclopropylpyrazolo[1,5-a]pyridin-3-yl)-N-isopropylpyrimidin-2-amine] | Particularly effective | 354 |  | 
2 | 4.9 µM | 0.4 µM |  |  |  | 12 ng·h/mL | 17 ng/mL | 5.8 µM | particularly effective | 2.9 µM | 1.1 µM | CC(C)Nc1nccc(-c2cnn3ccccc23)n1 [AV1164, N-isopropyl-4-(pyrazolo[1,5-a]pyridin-3-yl)pyrimidin-2-amine] | Particularly effective |  |  | 
3 | 1.1 µM | 1.2 µM |  | 72 min |  | 52 ng·h/mL | 26 ng/mL | 9.9 µM | particularly effective | > 30 µM |  | CC(C)Nc1nccc(-c2c(C(C)C)nn3ccccc23)n1 [AV1137, N-isopropyl-4-(2-isopropylpyrazolo[1,5-a]pyridin-3-yl)pyrimidin-2-amine] | Particularly effective |  | trend for reduced escape latencies | trend was seen for decreased escape latency and distance swum
4 | 0.6 µM | 0.2 µM |  |  |  | < 5 ng·h/mL |  | 7.5 µM | particularly effective |  | 7.6 µM | c1ccn2ncc(-c3ccnc(NC4CCCC4)n3)c2c1 [AV1165, N-cyclopentyl-4-(pyrazolo[1,5-a]pyridin-3-yl)pyrimidin-2-amine] | Particularly effective |  |  | 
